Where a name gives a salt, the structure may show the parent alone.
Key:
[1] = target: T1, Adrenergic β2 (H292 cells) (Homo sapiens, UniProt P07550); assay: Assay for Adrenergic β2 Mediated cAMP Production (concentration response, AlphaScreen cAMP detection); type: cell-based; conditions: for EC50: cAMP production, 60 minutes at room temperature, 300 μM rolipram, read-out: β2 pEC50 (converted); for β2 Intrinsic activity: fraction relative to the maximum activity determined for formoterol
T1 construct: endogenous in cells; host or cells: H292 cells
Summary of the method: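 Intrinsic activity is relative to the per-experiment formoterol maximum, with pEC50 from a four-parameter logistic fit of cAMP levels quantified by AlphaScreen against standards. Cells (H292) got 300 μM rolipram for 10 min, then compound for 60 min at room temperature, 1% DMSO final.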

[2] = target: T2, human muscarinic acetylcholine M3 receptor (M3-ACh) (Homo sapiens, UniProt P20309); assay: Muscarinic 3 Receptor Binding Assay ([3H]NMS competition, SPA); conditions: [3H]NMS 0.1 nM, CHO-K1 cell membranes, 16 hours at room temperature; read-out: M3 pIC50 (converted)
T2 construct: expressed in transfected cells; host or cells: CHO-K1 (Chinese Hamster Ovary) cell membranes
Summary of the method: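 Competition SPA binding of 0.1 nM [3H]NMS (quarter Kd) to membranes from CHO-K1 cells expressing human M3, in 20 mM HEPES pH 7.4, 5 mM MgCl2, 1% DMSO. Incubated 16 h at room temperature; non-specific binding with 1 µM atropine. pIC50 from 50% reduction of specific binding.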

T2 sequence (P20309 whole entry): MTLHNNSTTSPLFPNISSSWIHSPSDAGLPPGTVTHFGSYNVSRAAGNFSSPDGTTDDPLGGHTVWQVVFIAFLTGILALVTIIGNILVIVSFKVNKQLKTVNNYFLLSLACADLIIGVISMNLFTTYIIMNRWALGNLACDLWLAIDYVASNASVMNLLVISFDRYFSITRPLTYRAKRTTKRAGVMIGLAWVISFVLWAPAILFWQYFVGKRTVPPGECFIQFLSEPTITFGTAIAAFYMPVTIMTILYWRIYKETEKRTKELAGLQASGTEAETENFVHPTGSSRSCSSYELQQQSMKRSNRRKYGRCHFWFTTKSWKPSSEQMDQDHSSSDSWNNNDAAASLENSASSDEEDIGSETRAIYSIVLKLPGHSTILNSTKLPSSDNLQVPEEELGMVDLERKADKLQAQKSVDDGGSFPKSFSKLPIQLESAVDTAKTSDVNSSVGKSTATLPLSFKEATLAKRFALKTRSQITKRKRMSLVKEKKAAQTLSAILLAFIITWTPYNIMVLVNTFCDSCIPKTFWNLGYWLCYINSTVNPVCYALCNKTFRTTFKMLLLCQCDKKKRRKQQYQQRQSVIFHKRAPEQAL
T1 sequence (P07550 whole entry): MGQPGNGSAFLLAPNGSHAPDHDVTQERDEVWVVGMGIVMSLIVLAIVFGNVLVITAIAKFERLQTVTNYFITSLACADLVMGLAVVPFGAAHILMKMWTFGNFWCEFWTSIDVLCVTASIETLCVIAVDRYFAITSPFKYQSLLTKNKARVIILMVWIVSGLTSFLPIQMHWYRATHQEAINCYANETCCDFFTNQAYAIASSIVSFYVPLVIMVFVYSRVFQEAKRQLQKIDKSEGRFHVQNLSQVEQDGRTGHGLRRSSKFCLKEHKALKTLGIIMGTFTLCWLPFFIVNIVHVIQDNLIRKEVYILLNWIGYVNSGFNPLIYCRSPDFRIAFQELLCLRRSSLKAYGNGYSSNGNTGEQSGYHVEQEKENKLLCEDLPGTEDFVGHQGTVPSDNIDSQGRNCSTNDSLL

Compound: CC(C)c1nc(C(=O)N2CCOC3(CCN(Cc4csc(CCNC[C@H](O)c5ccc(O)c6[nH]c(=O)sc56)c4)CC3)C2)cs1 [Example 278, (R)-4-hydroxy-7-(1-hydroxy-2-(2-(4-((4-(2-isopropylthiazole-4-carbonyl)-1-oxa-4,9-diazaspiro[5.5]undecan-9-yl)methyl)thiophen-2-yl)ethylamino)ethyl)benzo[d]thiazol-2(3H)-one ditrifluoroacetate]
- EC50 [1]: 3.98 nM
- β2 Intrinsic activity [1]: 1.0
- IC50 [2]: 0.398 nM

Compound: CC(C)c1nc(C(=O)N2CCOC3(CCN(CCCCCCC(C)(C)CCNC[C@H](O)c4ccc(O)c5[nH]c(=O)sc45)CC3)C2)cs1 [Example 279, (R)-4-Hydroxy-7-(1-hydroxy-2-(9-(4-(2-isopropylthiazole-4-carbonyl)-1-oxa-4,9-diazaspiro[5.5]undecan-9-yl)-3,3-dimethylnonylamino)ethyl)benzo[d]thiazol-2(3H)-one formate]
- EC50 [1]: 316 nM
- β2 Intrinsic activity [1]: 0.9
- IC50 [2]: 7.94 nM

Compound: CC(CCCCCCCCN1CCC2(CC1)CN(C(=O)c1csc(C(C)C)n1)CCO2)NC[C@H](O)c1ccc(O)c2[nH]c(=O)sc12 (stereo partly drawn) [Example 280, (R)-4-Hydroxy-7-(1-hydroxy-2-(10-(4-(2-isopropylthiazole-4-carbonyl)-1-oxa-4,9-diazaspiro[5.5]undecan-9-yl)decan-2-ylamino)ethyl)benzo[d]thiazol-2(3H)-one formate]
- EC50 [1]: 5.01 nM
- β2 Intrinsic activity [1]: 1.2
- IC50 [2]: 0.794 nM

Compound: CC(C)c1nc(C(=O)N2CCOC3(CCN(CCCSCCCCNC[C@H](O)c4ccc(O)c5[nH]c(=O)sc45)CC3)C2)cs1 [Example 281, (R)-4-Hydroxy-7-(1-hydroxy-2-(4-(3-(4-(2-isopropylthiazole-4-carbonyl)-1-oxa-4,9-diazaspiro[5.5]undecan-9-yl)propylthio)butylamino)ethyl)benzo[d]thiazol-2(3H)-one formate]
- EC50 [1]: 31.6 nM
- β2 Intrinsic activity [1]: 0.8
- IC50 [2]: 1.58 nM

Compound: CC(C)c1nc(C(=O)N2CCOC3(CCN(CCC[S+]([O-])CCCCNC[C@H](O)c4ccc(O)c5[nH]c(=O)sc45)CC3)C2)cs1 (stereo partly drawn) [Example 282, 4-Hydroxy-7-((1R)-1-hydroxy-2-(4-(3-(4-(2-isopropylthiazole-4-carbonyl)-1-oxa-4,9-diazaspiro[5.5]undecan-9-yl)propylsulfinyl)butylamino)ethyl)benzo[d]thiazol-2(3H)-one formate]
- EC50 [1]: 50.1 nM
- β2 Intrinsic activity [1]: 1
- IC50 [2]: 20 nM

Compound: CC(CCCCCCCN1CCC2(CC1)CN(C(=O)c1csc(C(C)C)n1)CCO2)CNC[C@H](O)c1ccc(O)c2[nH]c(=O)sc12 (stereo partly drawn) [Example 283, 4-Hydroxy-7-((1R)-1-hydroxy-2-(9-(4-(2-isopropylthiazole-4-carbonyl)-1-oxa-4,9-diazaspiro[5.5]undecan-9-yl)-2-methylnonylamino)ethyl)benzo[d]thiazol-2(3H)-one formate]
- EC50 [1]: 79.4 nM
- β2 Intrinsic activity [1]: 1.1
- IC50 [2]: 1.26 nM

Compound: CC(C)c1cc(C(=O)N2CCOC3(CCN(CCCCCCCNC[C@H](O)c4ccc(O)c5[nH]c(=O)sc45)CC3)C2)cs1 [Example 284, (R)-4-Hydroxy-7-(1-hydroxy-2-(7-(4-(5-isopropylthiophene-3-carbonyl)-1-oxa-4,9-diazaspiro[5.5]undecan-9-yl)heptylamino)ethyl)benzo[d]thiazol-2(3H)-one formate]
- EC50 [1]: 12.6 nM
- β2 Intrinsic activity [1]: 0.9
- IC50 [2]: 2 nM

Compound: CC(C)c1nc(C(=O)N2CCOC3(CCN(CCCCCC(C)(C)CCCNC[C@H](O)c4ccc(O)c5[nH]c(=O)sc45)CC3)C2)cs1 [Example 285, (R)-4-Hydroxy-7-(1-hydroxy-2-(9-(4-(2-isopropylthiazole-4-carbonyl)-1-oxa-4,9-diazaspiro[5.5]undecan-9-yl)-4,4-dimethylnonylamino)ethyl)benzo[d]thiazol-2(3H)-one formate]
- EC50 [1]: 15.8 nM
- β2 Intrinsic activity [1]: 1
- IC50 [2]: 3.98 nM

— patent US8148373B2, “Compounds” (AstraZeneca AB, priority 2008, dated 2012)
